Results: patent publication US7915291B2, “Hepatitis C virus inhibitors” (Bristol-Myers Squibb Company, priority 2002, dated 2011)
Where two headings read alike, the source gives them in different places.

Assays:
[1] = molecular target: HCV NS3/4A protease complex, BMS strain (UniProt P27958, C1454S/C1711G, species not given/STRAIN_BMS); assay: Recombinant HCV NS3/4A protease complex FRET peptide assay (BMS strain); format: biochemical, HCV genotype 1a
Outline: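 Recombinant BMS-strain NS3/4A (His-tagged NS4A with three-lysine tail, E. coli) at 2-3 nM preincubated 1 min with compound, then 2 μM ester-linked NS4A/NS4B-based FRET peptide added. Fluorescence followed in real time ~15 min at 25° C. Percent inhibition from slope of linear fluorescence change versus no-compound control.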

[2] = tested on: HCV replicon in Huh7 cells; assay: HCV replicon cell-based assay; design: species or system HCV strain 1B; settings: Hepatitis C virus, Huh-7; HCV replicon, Huh7 cells; read-out: EC50 range
[3] = NS3/4A BMS strain; read-out: IC50 range

Row | Structure (SMILES) | IC50 [1, 3] [nM] | EC50 [2] [nM] | IC50 ([1]; read-out: IC50 range; NS3/4A BMS strain) [nM]
1 | C=CC1C[C@]1(NC(=O)[C@@H]1C[C@@H](Oc2noc3ccccc23)CN1C(=O)[C@@H](NC(=O)OC(C)(C)C)C(C)(C)C)C(=O)NS(=O)(=O)C1CC1 (stereo partly drawn) [Compound 334] | 100 to 1000 | 100 to 1000 | 
2 | C=CC1CC1(NC(=O)[C@@H]1C[C@@H](Oc2cc(-c3ccccc3)nc3c(C)noc23)CN1C(=O)[C@@H](NC(=O)OC(C)(C)C)C(C)(C)C)C(=O)NS(=O)(=O)C1CC1 (stereo partly drawn) [Compound 10] | < 100 | < 100 | 
3 | C=C[C@@H]1C[C@]1(NC(=O)[C@@H]1C[C@@H](Oc2nccc3ccccc23)CN1C(=O)[C@@H](NC(=O)Oc1ccccc1OC)C(C)(C)C)C(=O)NS(=O)(=O)C1CC1 [Compound 127] | < 100 | 100 to 1000 | 
4 | C=C[C@@H]1C[C@]1(NC(=O)[C@@H]1C[C@@H](Oc2nc(-c3ccc(OC)cc3)cc3ccccc23)CN1C(=O)[C@@H](NC(=O)OC(C)(C)C)C(C)(C)C)C(=O)NS(=O)(=O)C1CC1 [Compound 26] | < 100 | < 100 | 
5 | C=C[C@@H]1CC1(NC(=O)[C@@H]1CC(Oc2nccc3cc(OC)ccc23)CN1C(=O)[C@@H](NC(=O)NC(C)(C)CC)C(C)(C)C)C(=O)NS(=O)(=O)C1CC1 (stereo partly drawn) [Compound 76] |  | < 100 | < 100
6 | C=C[C@@H]1C[C@]1(NC(=O)[C@@H]1C[C@@H](Oc2ccnc(-c3ccsc3)c2)CN1C(=O)[C@@H](NC(=O)OC1CCCC1)C(C)(C)C)C(=O)NS(=O)(=O)C1CC1 [Compound 430] | < 100 | 100 to 1000 | 
7 | C=C[C@@H]1C[C@]1(NC(=O)[C@@H]1C[C@@H](Oc2nc(C#N)cc3ccccc23)CN1C(=O)[C@@H](NC(=O)OC(C)(C)C)C(C)(C)C)C(=O)NS(=O)(=O)C1CC1 [Compound 32] | < 100 | < 100 | 
8 | C=C[C@@H]1CC1(NC(=O)[C@@H]1CC(Oc2nccc3cc(OC)ccc23)CN1C(=O)[C@@H](NC(=O)CO[C@H]1C[C@@H](C)CC[C@@H]1C(C)C)C(C)(C)C)C(=O)NS(=O)(=O)C1CC1 (stereo partly drawn) [Compound 60] | < 100 | 1000 to 10000 | 
9 | C=C[C@@H]1C[C@]1(NC(=O)[C@@H]1C[C@@H](Oc2nccc3cc(OC)ccc23)CN1C(=O)[C@H](CC(=O)OCc1ccccc1)NC(=O)OC(C)(C)C)C(=O)NS(=O)(=O)C1CC1 [Compound 137] | < 100 | < 100 | 
10 | C=CC1C[C@]1(NC(=O)[C@@H]1C[C@@H](Oc2nc(Br)c(OC)c3ccccc23)CN1C(=O)[C@@H](NC(=O)OC(C)(C)C)C(C)(C)C)C(=O)NS(=O)(=O)C1CC1 (stereo partly drawn) [Compound 223] | < 100 | < 100 | 
11 | C=C[C@@H]1C[C@]1(NC(=O)[C@@H]1C[C@@H](Oc2nccc3cc(O)ccc23)CN1C(=O)[C@@H](NC(=O)OC(C)(C)C)C(C)(C)C)C(=O)NS(=O)(=O)C1CC1 [Compound 280] | < 100 | < 100 | 
12 | C=CC1C[C@]1(NC(=O)[C@@H]1C[C@@H](Oc2nc3c(c4ccccc24)OCC3)CN1C(=O)[C@@H](NC(=O)OC(C)(C)C)C(C)(C)C)C(=O)NS(=O)(=O)C1CC1 (stereo partly drawn) [Compound 219, BOCNH-P3(L-t-BuGly)-P2[(4R)-(2,3-dihydro-1-oxa-4aza -cyclopenta[α]naphthalen-5-yloxy)-S-proline]-P1(1R,2S VinylAcca)-CONHSO2Cyclopropane] | < 100 | < 100 | 
13 | C=C[C@@H]1C[C@]1(NC(=O)[C@@H]1C[C@@H](Oc2nc(N3CCOCC3)cc3cc(OC)ccc23)CN1C(=O)[C@@H](NC(=O)OC(C)(C)C)C(C)(C)C)C(=O)NS(=O)(=O)C1CC1 [Compound 385] | < 100 | < 100 | 
14 | C=C[C@@H]1C[C@]1(NC(=O)[C@@H]1C[C@@H](Oc2cc(C(F)(F)F)nc3ccc(C)cc23)CN1C(=O)[C@@H](NC(=O)OC(C)(C)C)C(C)(C)C)C(=O)NS(=O)(=O)C1CC1 [Compound 410] | < 100 | < 100 | 
15 | C=C[C@@H]1C[C@]1(NC(=O)[C@@H]1C[C@@H](Oc2nccc3cc(OC)ccc23)CN1C(=O)[C@@H](NC(=O)OC(C)(C)C)C1CCCCC1)C(=O)NS(=O)(=O)C1CC1 [Compound 143] | < 100 | < 100 | 
